Data reported in the CheMixHub viscosity set.
± gives the uncertainty stated by the source.

Test: xn = mol fraction of the nth substance listed

## CC(C)CC(C)(C)C + CC(C)O
298.15 K, 101 kPa, x1 = 0.0513
  viscosity: 1.722 ± 0.04 mPa·s
298.15 K, 101 kPa, x1 = 0.0555
  viscosity: 1.703 ± 0.021 mPa·s
298.15 K, 101 kPa, x1 = 0.1045
  viscosity: 1.47 ± 0.035 mPa·s
298.15 K, 101 kPa, x1 = 0.1511
  viscosity: 1.3 ± 0.031 mPa·s
298.15 K, 101 kPa, x1 = 0.2103
  viscosity: 1.123 ± 0.016 mPa·s
298.15 K, 101 kPa, x1 = 0.2394
  viscosity: 1.066 ± 0.026 mPa·s
298.15 K, 101 kPa, x1 = 0.2822
  viscosity: 0.947 ± 0.024 mPa·s
298.15 K, 101 kPa, x1 = 0.4108
  viscosity: 0.751 ± 0.02 mPa·s
298.15 K, 101 kPa, x1 = 0.4264
  viscosity: 0.734 ± 0.014 mPa·s
298.15 K, 101 kPa, x1 = 0.5195
  viscosity: 0.64 ± 0.018 mPa·s
298.15 K, 101 kPa, x1 = 0.5751
  viscosity: 0.599 ± 0.013 mPa·s
298.15 K, 101 kPa, x1 = 0.6545
  viscosity: 0.562 ± 0.017 mPa·s
298.15 K, 101 kPa, x1 = 0.6978
  viscosity: 0.54 ± 0.012 mPa·s
298.15 K, 101 kPa, x1 = 0.8094
  viscosity: 0.505 ± 0.016 mPa·s
298.15 K, 101 kPa, x1 = 0.9505
  viscosity: 0.49 ± 0.016 mPa·s
298.15 K, 101 kPa, x2 = 0.05
  viscosity: 0.482 ± 0.013 mPa·s
298.15 K, 101 kPa, x2 = 0.1
  viscosity: 0.486 ± 0.013 mPa·s
298.15 K, 101 kPa, x2 = 0.1501
  viscosity: 0.493 ± 0.013 mPa·s
298.15 K, 101 kPa, x2 = 0.2
  viscosity: 0.503 ± 0.013 mPa·s
298.15 K, 101 kPa, x2 = 0.25
  viscosity: 0.515 ± 0.013 mPa·s
298.15 K, 101 kPa, x2 = 0.3
  viscosity: 0.53 ± 0.013 mPa·s
298.15 K, 101 kPa, x2 = 0.35
  viscosity: 0.55 ± 0.013 mPa·s
298.15 K, 101 kPa, x2 = 0.4
  viscosity: 0.576 ± 0.013 mPa·s
298.15 K, 101 kPa, x2 = 0.45
  viscosity: 0.608 ± 0.013 mPa·s
298.15 K, 101 kPa, x2 = 0.5
  viscosity: 0.646 ± 0.013 mPa·s
298.15 K, 101 kPa, x2 = 0.55
  viscosity: 0.694 ± 0.013 mPa·s
298.15 K, 101 kPa, x2 = 0.6
  viscosity: 0.751 ± 0.013 mPa·s
298.15 K, 101 kPa, x2 = 0.65
  viscosity: 0.819 ± 0.014 mPa·s
298.15 K, 101 kPa, x2 = 0.7
  viscosity: 0.901 ± 0.014 mPa·s
298.15 K, 101 kPa, x2 = 0.75
  viscosity: 1.003 ± 0.014 mPa·s
298.15 K, 101 kPa, x2 = 0.8
  viscosity: 1.122 ± 0.015 mPa·s
298.15 K, 101 kPa, x2 = 0.85
  viscosity: 1.277 ± 0.016 mPa·s
298.15 K, 101 kPa, x2 = 0.9
  viscosity: 1.407 ± 0.017 mPa·s
298.15 K, 101 kPa, x2 = 0.95
  viscosity: 1.707 ± 0.018 mPa·s
308.15 K, 101 kPa, x2 = 0.05
  viscosity: 0.432 ± 0.012 mPa·s
308.15 K, 101 kPa, x2 = 0.1
  viscosity: 0.434 ± 0.012 mPa·s
308.15 K, 101 kPa, x2 = 0.1501
  viscosity: 0.44 ± 0.012 mPa·s
308.15 K, 101 kPa, x2 = 0.2
  viscosity: 0.447 ± 0.012 mPa·s
308.15 K, 101 kPa, x2 = 0.25
  viscosity: 0.457 ± 0.012 mPa·s
308.15 K, 101 kPa, x2 = 0.3
  viscosity: 0.468 ± 0.013 mPa·s
308.15 K, 101 kPa, x2 = 0.35
  viscosity: 0.483 ± 0.013 mPa·s
308.15 K, 101 kPa, x2 = 0.4
  viscosity: 0.501 ± 0.013 mPa·s
308.15 K, 101 kPa, x2 = 0.45
  viscosity: 0.524 ± 0.013 mPa·s
308.15 K, 101 kPa, x2 = 0.5
  viscosity: 0.552 ± 0.013 mPa·s
308.15 K, 101 kPa, x2 = 0.55
  viscosity: 0.586 ± 0.013 mPa·s
308.15 K, 101 kPa, x2 = 0.6
  viscosity: 0.628 ± 0.013 mPa·s
308.15 K, 101 kPa, x2 = 0.65
  viscosity: 0.677 ± 0.013 mPa·s
308.15 K, 101 kPa, x2 = 0.7
  viscosity: 0.736 ± 0.013 mPa·s
308.15 K, 101 kPa, x2 = 0.75
  viscosity: 0.806 ± 0.014 mPa·s
308.15 K, 101 kPa, x2 = 0.8
  viscosity: 0.898 ± 0.014 mPa·s
308.15 K, 101 kPa, x2 = 0.85
  viscosity: 1.006 ± 0.014 mPa·s
308.15 K, 101 kPa, x2 = 0.9
  viscosity: 1.145 ± 0.015 mPa·s
308.15 K, 101 kPa, x2 = 0.95
  viscosity: 1.31 ± 0.016 mPa·s

## CC(=O)CC(C)C + CCOCCO
298.15 K, 101.33 kPa, x1 = 0.1481
  viscosity: 1.043 ± 0.01 mPa·s
298.15 K, 101.33 kPa, x1 = 0.2727
  viscosity: 0.943 ± 0.009 mPa·s
298.15 K, 101.33 kPa, x1 = 0.3972
  viscosity: 0.854 ± 0.008 mPa·s
298.15 K, 101.33 kPa, x1 = 0.511
  viscosity: 0.782 ± 0.008 mPa·s
298.15 K, 101.33 kPa, x1 = 0.6235
  viscosity: 0.718 ± 0.007 mPa·s
298.15 K, 101.33 kPa, x1 = 0.7252
  viscosity: 0.664 ± 0.007 mPa·s
298.15 K, 101.33 kPa, x1 = 0.824
  viscosity: 0.617 ± 0.006 mPa·s
298.15 K, 101.33 kPa, x1 = 0.8892
  viscosity: 0.588 ± 0.006 mPa·s

## O=C1CCCCC1 + CCCCCCO
303.15 K, 101 kPa, x1 = 0.1001
  viscosity: 3.014 ± 0.027 mPa·s
303.15 K, 101 kPa, x1 = 0.2599
  viscosity: 2.391 ± 0.022 mPa·s
303.15 K, 101 kPa, x1 = 0.4199
  viscosity: 2.008 ± 0.018 mPa·s
303.15 K, 101 kPa, x1 = 0.5798
  viscosity: 1.861 ± 0.017 mPa·s
303.15 K, 101 kPa, x1 = 0.7404
  viscosity: 1.738 ± 0.016 mPa·s

## CC=Cc1ccc2c(c1)OCO2 + CCCCCOC(C)=O
298.15 K, 101 kPa, x1 = 0.137
  viscosity: 0.958 ± 0.012 mPa·s

## CC(=O)CC(C)C + Cc1ccc(C)cc1
298.15 K, 101 kPa, x1 = 0.1409
  viscosity: 0.59 ± 0.006 mPa·s
298.15 K, 101 kPa, x1 = 0.226
  viscosity: 0.583 ± 0.006 mPa·s
298.15 K, 101 kPa, x1 = 0.3369
  viscosity: 0.576 ± 0.006 mPa·s
298.15 K, 101 kPa, x1 = 0.4463
  viscosity: 0.569 ± 0.006 mPa·s
298.15 K, 101 kPa, x1 = 0.5673
  viscosity: 0.563 ± 0.006 mPa·s
298.15 K, 101 kPa, x1 = 0.6366
  viscosity: 0.559 ± 0.006 mPa·s
298.15 K, 101 kPa, x1 = 0.8014
  viscosity: 0.551 ± 0.006 mPa·s
298.15 K, 101 kPa, x1 = 0.9061
  viscosity: 0.546 ± 0.006 mPa·s
